This note sets out measurements from PubChem BioAssay (NCI).

Each structure is given as a SMILES string. Values joined by “and” are separate entries in the source; they are usually repeats but may differ in a detail not shown here. Equal entries are not always repeated.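 Following 48 hours of exposure in 96-well plates, responses at five concentrations were used to interpolate endpoints linearly. Abbreviation: GI50, concentration required for 50% inhibition of growth. TGI: concentration producing complete growth inhibition.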

Assay in all cases: NCI tumour cell line growth inhibition, 48 h
Assay [1] deals with IGROV1 ovarian.
Assay [2] has as its system SNB-19 CNS.
Assay [3] concerns DMS 114 small cell lung.
Assay [4] relates to DLD-1 colon.
For assay [5], the system named is OVCAR-3 ovarian.
In assay [6] the test system is U251 CNS.
Assay [7] concerns HL-60(TB) leukemia.
Assay [8] deals with SR leukemia.
Assay [9] concerns KM20L2 colon.
For assay [10], the system named is OVCAR-8 ovarian.
Assay [11] relates to XF 498 CNS.
In assay [12] the test system is BT-549 breast.

Take `Cc1ccc(Nc2nc(C)c(C(/C=C/c3ccc4c(c3)OCO4)=N/Nc3ccc([N+](=O)[O-])cc3[N+](=O)[O-])s2)c([N+](=O)[O-])c1`: the TGI in assay [1], in assay [2], in assay [3], in assay [4], in assay [5] and in assay [6] was greater than 100 µM each time. For the same compound, the TGI in assay [7] was 95 µM; in [8] it was greater than 100 µM; in assay [9] it was greater than 100 µM; in assay [10], greater than 100 µM; in [11], 56.2 µM.

On to `O=C(CC(=O)c1ccccc1)C(=O)NC12CC3CC(CC(C3)C1)C2`, for which the TGI in [1] is greater than 100 µM; in [2], greater than 100 µM; in assay [3], greater than 58.4 µM; in assay [4], greater than 70 µM; in assay [5], greater than 100 µM; in [6], greater than 100 µM. In addition, the TGI in assay [7] was greater than 69.1 µM; in [8], greater than 100 µM; in assay [9] it was greater than 100 µM; in [10] it was greater than 100 µM; in assay [11], greater than 100 µM.

As to `COc1cc2c(Cc3cc(OCc4ccccc4)ccc3N)nccc2c(OC)c1OC`, the TGI in assay [1], in assay [2], in [3], in [4], in assay [5] and in [6] was greater than 10 µM each time. Also, the TGI in [7], in assay [8], in [9], in assay [10] and in assay [11] was greater than 10 µM in each case.

With `COC(=O)c1nc(N)nc(C(=O)OC)c1C(=O)c1ccccc1`, the TGI in assay [1], in assay [2], in assay [3], in [4], in assay [5] and in assay [6] was greater than 100 µM in each case. In addition, the TGI in assay [7], in assay [8], in [9], in assay [10] and in assay [11] was greater than 100 µM each time.

As for `c1ccc2c(CN3CCC(C4CCN(Cc5cccc6ccccc56)CC4)CC3)cccc2c1`, the GI50 in assay [1] is 32.2 µM and > 79.4 µM; in assay [2] it was 40.1 µM and > 100 µM; in assay [8], 1.47 µM and 10.2 µM; in assay [10] it was 21.8 µM and 6.98 µM. In addition, the TGI in assay [1] is greater than 100 µM; in assay [2] it was greater than 100 µM; in assay [3] it was 6.76 µM; in assay [4], 26.8 µM; in assay [5], greater than 100 µM; in [6] it was 25.5 µM and 47.6 µM. Also, the TGI in assay [7] is 4.5 µM and 26.1 µM; in assay [12] it was greater than 100 µM; in [9], 10.3 µM; in assay [10], greater than 72.4 µM; in assay [11], 10.4 µM.

As for `COC1(Cc2ccccc2)C(=O)c2ccccc2N1C(C)=O` (stereo not given), the TGI in [1], in [2], in assay [3], in [4], in assay [5] and in assay [6] was greater than 100 µM in each case. Also, the TGI in assay [7], in assay [8], in assay [9], in assay [10] and in assay [11] was greater than 100 µM in each case.

In the case of `Oc1ccc(Cn2c(-c3ccc(O)cc3)nc3ccccc32)cc1`, the TGI in assay [1], in assay [2], in [3], in [4], in assay [5] and in assay [6] was greater than 100 µM in each case. Further, the TGI in [7] is greater than 31.6 µM; in [8], greater than 31.6 µM; in assay [12] it was greater than 100 µM; in assay [9], greater than 100 µM; in assay [10], greater than 100 µM; in assay [11], greater than 100 µM.

Regarding `O=C(NC1C=Nc2ccccc2NC1=O)c1ccccc1Cl` (stereo not given), the TGI in assay [1], in assay [2], in assay [3], in [4], in assay [5] and in assay [6] was greater than 100 µM in each case. Besides, the TGI in assay [7] was 54.1 µM; in assay [8] it was greater than 100 µM; in [9], greater than 100 µM; in assay [10], greater than 100 µM; in [11], greater than 100 µM.

Take `CC#Cc1c(C#CC)c(OC)c2c(c1OC)C(=O)c1ccccc1C2=O`: the TGI in [1] is greater than 100 µM; in assay [2] it was 71.4 µM; in [3], 89 µM; in [4], greater than 100 µM; in assay [5], greater than 100 µM; in assay [6], 48 µM. Moreover, the TGI in [7], in assay [8], in assay [9], in [10] and in [11] was greater than 100 µM in each case.

As for `O=C1NN=CN2C(=O)CCC12` (stereo not given), the TGI in [1], in [2], in [3], in assay [4], in assay [5] and in assay [6] was greater than 100 µM each time. Besides, the TGI in assay [7], in [8], in [9], in assay [10] and in assay [11] was greater than 100 µM throughout.
